# Measurements: patent publication US20100056483A1, “METHODS AND COMPOSITIONS FOR THE TREATMENT AND PREVENTION OF BONE LOSS” (OHIO UNIVERSITY, priority 2008, published 2010)
# Columns and labels:
# [1] = broad-spectrum divalent-cation chelator; cited from earlier work
# [2] = OVX rats; 200 mg/kg/day CaEDTA intraperitoneal; weighed weekly
# Method: The temperature inside the chambers was 22° C. (±2) with relative humidity from 40 to 60%.
# The rats were weighed and euthanized with carbon dioxide.
structure (smiles),measurement,setting,value
"O=C(O)CN(CCN(CC(=O)O)CC(=O)O)CC(=O)O.[Ca] [CaEDTA, Calcium ethylenediaminetetra-acetic acid]",Affinity for zinc relative to calcium,[1],binds zinc with higher affinity than Calcium
same,Effect on body weight,[2],no effect on body weight
